Data reported in PMC12892976, “Alkylation-based optimization of antifungal FPPS inhibitors yields a potent, broad-spectrum lipophilic zoledronate derivative” (mBio, 2025).
In brackets after ≈: the same amount, converted by molar mass.

Assays:
Trichophyton rubrum [1] = test: MIC/MFC broth microdilution (CLSI); details: for MFC / MIC: Trichophyton rubrum; for MIC / MEC: Trichophyton rubrum R-218
Method: (§1) Antifungal susceptibility was determined by broth microdilution according to the CLSI guidelines described in M27-Ed4 ([16]). […] MFC was determined by back-plating drug-treated cultures from MIC broths onto SDA plates. The MFC was defined as the lowest concentration from which no colonies could be cultured.

Candida glabrata [2] = test: checkerboard drug interaction (FICI, MICc); assay type: cell-based;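 further: simplified diagonal checkerboard screen pairing antifungals with FPPS inhibitors, FICI calculated under the Loewe additivity model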
Method: (§2) Drug interactions between antifungals and FPPS inhibitors were investigated using a simplified checkerboard diagonal screening method ([45]). […] FICIs were determined according to the Loewe additivity model ([17]).

[3] = test system: Cryptococcus deuterogattii; test: MIC/MFC broth microdilution (CLSI); details: for MFC / MIC: Cryptococcus deuterogattii; for MIC / MEC: Cryptococcus deuterogattii R265;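 on all read-outs here: broth microdilution per CLSI M27-Ed4. MFC is the lowest concentration yielding no colonies when MIC broths are subcultured onto SDA plates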
Method: as §1

Aspergillus flavus [4] = test: MIC/MFC broth microdilution (CLSI); details: ATCC204304
Method: as §1

Trichophyton rubrum [5] = test: checkerboard drug interaction (FICI, MICc); assay type: cell-based;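 further: simplified diagonal checkerboard screen pairing azole antifungals with FPPS inhibitors, FICI calculated under the Loewe additivity model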
Method: as §2

Cryptococcus neoformans [6] = test: MIC/MFC broth microdilution (CLSI); details: for MFC / MIC: Cryptococcus neoformans; for MIC / MEC: Cryptococcus neoformans H99;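 on all read-outs here: susceptibility testing followed the CLSI M27-Ed4 broth microdilution document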
Method: as §1

Aspergillus fumigatus [7] = test: MIC/MFC broth microdilution (CLSI); details: ATCC204305
Method: as §1

Saccharomyces cerevisiae [8] = test: MIC/MFC broth microdilution (CLSI); assay type: cell-based; details: Saccharomyces cerevisiae S288c
Method: as §1

Aspergillus flavus [9] = test: checkerboard drug interaction (FICI, MICc); assay type: cell-based;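 further: simplified diagonal checkerboard screen pairing azole antifungals with FPPS inhibitors, FICI calculated under the Loewe additivity model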
Method: as §2

Saccharomyces cerevisiae [10] = test: checkerboard drug interaction (FICI, MICc); assay type: cell-based;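 further: simplified diagonal checkerboard screen pairing antifungals with FPPS inhibitors, FICI calculated under the Loewe additivity model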
Method: as §2

Aspergillus fumigatus [11] = test: checkerboard drug interaction (FICI, MICc); assay type: cell-based;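 further: simplified diagonal checkerboard screen pairing antifungals with FPPS inhibitors against Aspergillus fumigatus, with FICI calculated under the Loewe additivity model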
Method: as §2

Trichophyton tonsurans = test: checkerboard drug interaction (FICI, MICc); assay type: cell-based;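 further: simplified diagonal checkerboard screen combining antifungals with FPPS inhibitors, with FICI calculated under the Loewe additivity model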
Method: as §2

Candida glabrata [12] = test: MIC/MFC broth microdilution (CLSI); details: for MIC / MEC: Candida glabrata CBS138 (ATCC 2001); for MFC / MIC: Nakaseomyces glabratus, CBS138;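 on all read-outs here: broth microdilution following CLSI M27-Ed4, MFC taken as the lowest drug level yielding no growth once MIC wells were subcultured on SDA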
Method: as §1

Candida albicans [13] = test: MIC/MFC broth microdilution (CLSI); assay type: cell-based; details: Candida albicans SC5314
Method: as §1

[14] = test system: Cryptococcus deuterogattii; test: checkerboard drug interaction (FICI, MICc); assay type: cell-based;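 further: simplified diagonal checkerboard screen pairing antifungal drugs with FPPS inhibitors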
Method: as §2

Candida albicans [15] = test: checkerboard drug interaction (FICI, MICc); assay type: cell-based;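 further: antifungal plus FPPS inhibitor combinations on Candida albicans tested by a simplified diagonal checkerboard screen, with FICI calculated under the Loewe additivity model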
Method: as §2

Cryptococcus neoformans [16] = test: checkerboard drug interaction (FICI, MICc); assay type: cell-based;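 further: antifungal plus FPPS inhibitor pairs tested against Cryptococcus neoformans by simplified diagonal checkerboard screening, FICI computed under the Loewe additivity model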
Method: as §2

eight fungal species = test: MIC/MFC summary across the eight fungal species of Table 1; assay type: cell-based; details: for MFC: across eight species, read-out: Geometric mean MFC; for MIC: read-out: Geometric mean MIC
Method: The antifungal activity of these compounds was evaluated according to CLSI guidelines ([16]).

Microsporum canis = test: checkerboard drug interaction (FICI, MICc); assay type: cell-based
Method: as §2

`CCC(C)n1ncn(-c2ccc(N3CCN(c4ccc(OCC5COC(Cn6cncn6)(c6ccc(Cl)cc6Cl)O5)cc4)CC3)cc2)c1=O` (stereo not drawn) [ITR, itraconazole] was tested, and the MFC (Trichophyton rubrum [1]) was greater than 16 µg/mL, the MIC (Trichophyton rubrum [1]) was 8 µg/mL (≈ 11.3 µM) and the “MIC / MEC” value (Trichophyton rubrum [1]) was 8 µg/mL (≈ 11.3 µM). The “antifungal MICc” value (Candida glabrata [2]; in combination with 10-ZOL) was 0.031, the “antifungal MICc” value (Candida glabrata [2]; in combination with ZOL) was 0.016 and the MFC [3] was 4 µg/mL (≈ 5.67 µM). The MIC [3] was 1 µg/mL (≈ 1.42 µM), the “MIC / MEC” value [3] was 1 µg/mL (≈ 1.42 µM) and the MFC (Aspergillus flavus [4]) was 2 µg/mL (≈ 2.83 µM). For the same compound, the MIC (Aspergillus flavus [4]) was 0.5 µg/mL (≈ 0.709 µM), the “MIC / MEC” value (Aspergillus flavus [4]) was 0.5 µg/mL (≈ 0.709 µM) and the “antifungal MICc” value (Trichophyton rubrum [5]; in combination with 10-ZOL) was 1. For the same compound, the “antifungal MICc” value (Trichophyton rubrum [5]; in combination with ZOL) was 2, the MFC (Cryptococcus neoformans [6]) was 4 µg/mL (≈ 5.67 µM) and the MIC (Cryptococcus neoformans [6]) was 0.5 µg/mL (≈ 0.709 µM). The “MIC / MEC” value (Cryptococcus neoformans [6]) was 0.5 µg/mL (≈ 0.709 µM), the MFC (Aspergillus fumigatus [7]) was 4 µg/mL (≈ 5.67 µM) and the MIC (Aspergillus fumigatus [7]) was 0.125 µg/mL (≈ 0.177 µM). The “MIC / MEC” value (Aspergillus fumigatus [7]) was 0.13 µg/mL (≈ 0.184 µM), the MFC (Saccharomyces cerevisiae [8]) was 1 µg/mL (≈ 1.42 µM) and the MIC (Saccharomyces cerevisiae [8]) was 0.25 µg/mL (≈ 0.354 µM). For the same compound, the “MIC / MEC” value (Saccharomyces cerevisiae [8]) was 0.25 µg/mL (≈ 0.354 µM), the “antifungal MICc” value (Aspergillus flavus [9]; in combination with 10-ZOL) was 0.5 and the “antifungal MICc” value (Aspergillus flavus [9]; in combination with ZOL) was 0.5. For the same compound, the “antifungal MICc” value (Saccharomyces cerevisiae [10]; in combination with 10-ZOL) was 0.125, the “antifungal MICc” value (Saccharomyces cerevisiae [10]; in combination with ZOL) was 0.063 and the “antifungal MICc” value (Aspergillus fumigatus [11]; in combination with 10-ZOL) was 0.063. For the same compound, the “antifungal MICc” value (Aspergillus fumigatus [11]; in combination with ZOL) was 0.063, the “antifungal MICc” value (Trichophyton tonsurans; in combination with 10-ZOL) was 0.25 and the “antifungal MICc” value (Trichophyton tonsurans; in combination with ZOL) was 0.25. The “MIC / MEC” value (Candida glabrata [12]) was 0.13 µg/mL (≈ 0.184 µM), the MFC (Candida glabrata [12]) was 4 µg/mL (≈ 5.67 µM) and the MIC (Candida glabrata [12]) was 0.125 µg/mL (≈ 0.177 µM). For the same compound, the MFC (Candida albicans [13]) was 2 µg/mL (≈ 2.83 µM), the MIC (Candida albicans [13]) was 0.25 µg/mL (≈ 0.354 µM) and the “MIC / MEC” value (Candida albicans [13]) was 0.25 µg/mL (≈ 0.354 µM). The “antifungal MICc” value ([14]; in combination with 10-ZOL) was 0.125, the “antifungal MICc” value ([14]; in combination with ZOL) was 0.25 and the “antifungal MICc” value (Candida albicans [15]; in combination with 10-ZOL) was 0.25. The “antifungal MICc” value (Candida albicans [15]; in combination with ZOL) was 0.25, the “antifungal MICc” value (Cryptococcus neoformans [16]; in combination with 10-ZOL) was 0.063 and the “antifungal MICc” value (Cryptococcus neoformans [16]; in combination with ZOL) was 0.125. The MFC (eight fungal species) was 3.7 µg/mL (≈ 5.24 µM), the MIC (eight fungal species) was 0.5 µg/mL (≈ 0.709 µM) and the “antifungal MICc” value (Microsporum canis; in combination with 10-ZOL) was 0.063. For the same compound, the “antifungal MICc” value (Microsporum canis; in combination with ZOL) was 0.25.

`CC(=O)N1CCN(c2ccc(OCC3COC(Cn4ccnc4)(c4ccc(Cl)cc4Cl)O3)cc2)CC1` (stereo not drawn) [KET, ketoconazole] was tested, and the MFC (Trichophyton rubrum [1]) was greater than 16 µg/mL, the MIC (Trichophyton rubrum [1]) was 4 µg/mL (≈ 7.53 µM) and the “MIC / MEC” value (Trichophyton rubrum [1]) was 4 µg/mL (≈ 7.53 µM). The “antifungal MICc” value (Candida glabrata [2]; in combination with 10-ZOL) was 0.016, the “antifungal MICc” value (Candida glabrata [2]; in combination with ZOL) was 0.031 and the MFC [3] was 8 µg/mL (≈ 15.1 µM). The MIC [3] was 4 µg/mL (≈ 7.53 µM), the “MIC / MEC” value [3] was 4 µg/mL (≈ 7.53 µM) and the MFC (Aspergillus flavus [4]) was 8 µg/mL (≈ 15.1 µM). For the same compound, the MIC (Aspergillus flavus [4]) was 2 µg/mL (≈ 3.76 µM), the “MIC / MEC” value (Aspergillus flavus [4]) was 2 µg/mL (≈ 3.76 µM) and the “antifungal MICc” value (Trichophyton rubrum [5]; in combination with 10-ZOL) was 1. The “antifungal MICc” value (Trichophyton rubrum [5]; in combination with ZOL) was 1, the MFC (Cryptococcus neoformans [6]) was 4 µg/mL (≈ 7.53 µM) and the MIC (Cryptococcus neoformans [6]) was 0.25 µg/mL (≈ 0.47 µM). The “MIC / MEC” value (Cryptococcus neoformans [6]) was 0.25 µg/mL (≈ 0.47 µM), the MFC (Aspergillus fumigatus [7]) was 16 µg/mL (≈ 30.1 µM) and the MIC (Aspergillus fumigatus [7]) was 4 µg/mL (≈ 7.53 µM). The “MIC / MEC” value (Aspergillus fumigatus [7]) was 4 µg/mL (≈ 7.53 µM), the MFC (Saccharomyces cerevisiae [8]) was 8 µg/mL (≈ 15.1 µM) and the MIC (Saccharomyces cerevisiae [8]) was 1 µg/mL (≈ 1.88 µM). For the same compound, the “MIC / MEC” value (Saccharomyces cerevisiae [8]) was 1 µg/mL (≈ 1.88 µM), the “antifungal MICc” value (Aspergillus flavus [9]; in combination with 10-ZOL) was 1 and the “antifungal MICc” value (Aspergillus flavus [9]; in combination with ZOL) was 2. For the same compound, the “antifungal MICc” value (Saccharomyces cerevisiae [10]; in combination with 10-ZOL) was 0.25, the “antifungal MICc” value (Saccharomyces cerevisiae [10]; in combination with ZOL) was 0.25 and the “antifungal MICc” value (Aspergillus fumigatus [11]; in combination with 10-ZOL) was 0.25. For the same compound, the “antifungal MICc” value (Aspergillus fumigatus [11]; in combination with ZOL) was 2, the “antifungal MICc” value (Trichophyton tonsurans; in combination with 10-ZOL) was 0.25 and the “antifungal MICc” value (Trichophyton tonsurans; in combination with ZOL) was 0.5. For the same compound, the “MIC / MEC” value (Candida glabrata [12]) was 0.5 µg/mL (≈ 0.941 µM), the MFC (Candida glabrata [12]) was 4 µg/mL (≈ 7.53 µM) and the MIC (Candida glabrata [12]) was 0.5 µg/mL (≈ 0.941 µM). For the same compound, the MFC (Candida albicans [13]) was 0.25 µg/mL (≈ 0.47 µM), the MIC (Candida albicans [13]) was 0.0625 µg/mL (≈ 0.118 µM) and the “MIC / MEC” value (Candida albicans [13]) was 0.06 µg/mL (≈ 0.113 µM). The “antifungal MICc” value ([14]; in combination with 10-ZOL) was 0.063, the “antifungal MICc” value ([14]; in combination with ZOL) was 0.5 and the “antifungal MICc” value (Candida albicans [15]; in combination with 10-ZOL) was 0.125. For the same compound, the “antifungal MICc” value (Candida albicans [15]; in combination with ZOL) was 0.25, the “antifungal MICc” value (Cryptococcus neoformans [16]; in combination with 10-ZOL) was 0.063 and the “antifungal MICc” value (Cryptococcus neoformans [16]; in combination with ZOL) was 0.125. The MFC (eight fungal species) was 6.7 µg/mL (≈ 12.6 µM), the MIC (eight fungal species) was 1.3 µg/mL (≈ 2.45 µM) and the “antifungal MICc” value (Microsporum canis; in combination with 10-ZOL) was 1. The “antifungal MICc” value (Microsporum canis; in combination with ZOL) was 4.

With `Nc1nc(=O)[nH]cc1F` [5FC, 5-flucytosine] the “MIC / MEC” value (Trichophyton rubrum [1]) was greater than 64 µg/mL, the “antifungal MICc” value (Candida glabrata [2]; in combination with 10-ZOL) was 0.125 and the “antifungal MICc” value (Candida glabrata [2]; in combination with ZOL) was 0.125. The “MIC / MEC” value [3] was 8 µg/mL (≈ 62 µM), the “MIC / MEC” value (Aspergillus flavus [4]) was greater than 64 µg/mL and the “antifungal MICc” value (Trichophyton rubrum [5]; in combination with 10-ZOL) was 32. The “antifungal MICc” value (Trichophyton rubrum [5]; in combination with ZOL) was 128, the “MIC / MEC” value (Cryptococcus neoformans [6]) was 4 µg/mL (≈ 31 µM) and the “MIC / MEC” value (Aspergillus fumigatus [7]) was greater than 64 µg/mL. For the same compound, the “MIC / MEC” value (Saccharomyces cerevisiae [8]) was 1 µg/mL (≈ 7.75 µM), the “antifungal MICc” value (Aspergillus flavus [9]; in combination with 10-ZOL) was 256 and the “antifungal MICc” value (Aspergillus flavus [9]; in combination with ZOL) was 128. The “antifungal MICc” value (Saccharomyces cerevisiae [10]; in combination with 10-ZOL) was 1, the “antifungal MICc” value (Saccharomyces cerevisiae [10]; in combination with ZOL) was 1 and the “antifungal MICc” value (Aspergillus fumigatus [11]; in combination with 10-ZOL) was 256. For the same compound, the “antifungal MICc” value (Aspergillus fumigatus [11]; in combination with ZOL) was 128, the “antifungal MICc” value (Trichophyton tonsurans; in combination with 10-ZOL) was 64 and the “antifungal MICc” value (Trichophyton tonsurans; in combination with ZOL) was 64. The “MIC / MEC” value (Candida glabrata [12]) was 0.25 µg/mL (≈ 1.94 µM), the “MIC / MEC” value (Candida albicans [13]) was 0.25 µg/mL (≈ 1.94 µM) and the “antifungal MICc” value ([14]; in combination with 10-ZOL) was 0.5. For the same compound, the “antifungal MICc” value ([14]; in combination with ZOL) was 0.125, the “antifungal MICc” value (Candida albicans [15]; in combination with 10-ZOL) was 0.125 and the “antifungal MICc” value (Candida albicans [15]; in combination with ZOL) was 0.25. For the same compound, the “antifungal MICc” value (Cryptococcus neoformans [16]; in combination with 10-ZOL) was 0.25, the “antifungal MICc” value (Cryptococcus neoformans [16]; in combination with ZOL) was 1 and the “antifungal MICc” value (Microsporum canis; in combination with 10-ZOL) was 256. For the same compound, the “antifungal MICc” value (Microsporum canis; in combination with ZOL) was 512.
